Patent US20240279220A1, “INDOLE COMPOUNDS AND METHODS OF USE” (Genzyme Corporation, priority 2021, published 2024)

test system: NBD1/3D; test: Aggregation analysis using differential static light scattering (DSLS), NBD1 thermal stability; assay type: binding, Human; conditions: ΔTagg versus DMSO control; compound at 100 μM
How it was run: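 Thermal stabilisation reported as ΔTagg, i.e. aggregation temperature relative to averaged DMSO wells. Tagg came from the inflection of differential static light scattering imaged 25–70 °C while NBD1 (0.2 mg/ml, Tris pH 7.6 buffer containing ATP, MgCl2, DTT, glycerol) was ramped 1 °C/min.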

Row | SMILES | DSLS NBD1/3D Human Stability delta-T (° C.) @ 100 (μM)
1 | Cc1c(Oc2ccc(F)c(-c3nc(Cc4csc(CCC(=O)O)n4)c[nH]3)c2)c(F)cc2[nH]ccc12 [Example 89, 3-(4-((2-(2-Fluoro-5-((6-fluoro-4-methyl-1H-indol-5-yl)oxy)phenyl)-1H-imidazol-4-yl)methyl)thiazol-2-yl)propanoic acid] | B (B: 5-10° C.)
2 | Cc1c(Oc2ccc(F)c(-c3ncc(Cc4cccc(CCC(=O)O)n4)[nH]3)c2)c(F)cc2[nH]ccc12 [Example 90, 3-(6-((2-(2-fluoro-5-((6-fluoro-4-methyl-1H-indol-5-yl)oxy)phenyl)-1H-imidazol-5-yl)methyl)pyridin-2-yl)propanoic acid] | B (B: 5-10° C.)
3 | Cc1c(Oc2ccc(F)c(-c3ncc(Cc4cccc(CC(=O)O)n4)[nH]3)c2)c(F)cc2[nH]ccc12 [Example 91, 2-(6-((2-(2-fluoro-5-((6-fluoro-4-methyl-1H-indol-5-yl)oxy)phenyl)-1H-imidazol-5-yl)methyl)pyridin-2-yl)acetic acid] | B (B: 5-10° C.)
4 | CP(C)(=O)c1c(Oc2cccc(-c3nc(Cc4cccc(CCC(=O)O)c4)cs3)c2)c(F)cc2[nH]ccc12 [Example 92, 3-(3-((2-(3-((4-(Dimethylphosphoryl)-6-fluoro-1H-indol-5-yl)oxy)phenyl)thiazol-4-__yl)methy)phenyl)propanoic acid] | B (B: 5-10° C.)
5 | CS(=O)(=O)c1c(Oc2ccc(F)c(-c3nc(Cc4cccc(CCC(=O)O)c4)cs3)c2)c(F)cc2[nH]ccc12 [Example 93, 3-(3-((2-(2-fluoro-5-((6-fluoro-4-(methylsulfonyl)-1H-indol-5-yl)oxy)phenyl)thiazol-4-yl)methyl)phenyl)propanoic acid] | B (B: 5-10° C.)
6 | O=C(O)CCc1cccc(C2(c3csc(-c4cc(Oc5c(F)cc6[nH]ccc6c5F)ccc4F)n3)CC(F)(F)C2)c1 [Example 94, 3-(3-(1-(2-(5-((4,6-difluoro-1H-indol-5-yl)oxy)-2-fluorophenyl)thiazol-4-yl)-3,3-difluorocyclobutyl)phenyl)propanoic acid] | B (B: 5-10° C.)
7 | O=C(O)CCc1cccc(C2(c3csc(-c4cccc(Oc5c(F)cc6[nH]ccc6c5F)c4)n3)CCOCC2)c1 [Example 95, 3-(3-(4-(2-(3-((4,6-difluoro-1H-indol-5-yl)oxy)phenyl)thiazol-4-yl)tetrahydro-2H-pyran-4-yl)phenyl)propanoic acid] | B (B: 5-10° C.)
8 | CC(O)(c1cccc(CCC(=O)O)c1)c1cnc(-c2cc(Oc3c(F)cc4[nH]ccc4c3P(C)(C)=O)ccc2F)[nH]1 (stereo not drawn) [Example 96, 3-(3-(1-(2-(5-((4-(Dimethylphosphoryl)-6-fluoro-1H-indol-5-yl)oxy)-2-fluorophenyl)-1H-imidazol-5-yl)-1-hydroxyethyl)phenyl)propanoic acid] | B (B: 5-10° C.)
9 | CC(O)(c1cccc(CCC(=O)O)c1)c1csc(-c2cccc(Oc3c(F)cc4[nH]ccc4c3P(C)(C)=O)c2)n1 (stereo not drawn) [Example 98, 3-(3-(1-(2-(3-((4-(Dimethylphosphoryl)-6-fluoro-1H-indol-5-yl)oxy)phenyl)thiazol-4-yl)-1-hydroxyethyl)phenyl)propanoic acid] | B (B: 5-10° C.)
10 | O=C(O)CCc1cccc(Cc2csc(-c3cccc(Oc4ccc5[nH]ccc5c4CO)c3)n2)c1 [Example 99, 3-(3-((2-(3-((4-(Hydroxymethyl)-1H-indol-5-yl)oxy)phenyl)thiazol-4-yl)methyl)phenyl)propanoic acid] | B (B: 5-10° C.)
11 | O=C(O)CCc1cccc(Cc2cnc(-c3cc(Oc4c(F)cc5[nH]ccc5c4F)ccc3F)[nH]2)c1F [Example 100, 3-(3-((2-(5-((4,6-Difluoro-1H-indol-5-yl)oxy)-2-fluorophenyl)-1H-imidazol-5-yl)methyl)-2-fluorophenyl)propanoic acid] | B (B: 5-10° C.)
12 | COC(=O)CCc1cccc(Cc2c[nH]c(-c3cc(Oc4c(F)cc5[nH]ccc5c4F)ccc3F)n2)c1 [Example 101, methyl 3-(3-((2-(5-((4,6-difluoro-1H-indol-5-yl)oxy)-2-fluorophenyl)-1H-imidazol-4-yl)methyl)phenyl)propanoate] | C (C: ≤5° C.)
13 | O=C(O)CCc1cccc(Cc2cnc(-c3cccc(Oc4c(F)cc5[nH]ccc5c4SC(F)(F)F)c3)[nH]2)c1 [Example 102, 3-(3-((2-(3-((6-fluoro-4-((trifluoromethyl)thio)-1H-indol-5-yl)oxy)phenyl)-1H-imidazol-5-yl)methyl)phenyl)propanoic acid] | B (B: 5-10° C.)
14 | O=C(O)CCc1ccc(F)c(Cc2cnc(-c3cc(Oc4c(F)cc5[nH]ccc5c4F)ccc3F)[nH]2)c1 [Example 103, 3-(3-((2-(5-((4,6-difluoro-1H-indol-5-yl)oxy)-2-fluorophenyl)-1H-imidazol-5-yl)methyl)-4-fluorophenyl)propanoic acid] | B (B: 5-10° C.)
15 | O=C(O)CCc1cccc(Cc2cnc(-c3cc(Oc4ccc5[nH]ccc5c4C(F)(F)F)ccc3F)[nH]2)c1 [Example 104, 3-(3-((2-(2-fluoro-5-((4-(trifluoromethyl)-1H-indol-5-yl)oxy)phenyl)-1H-imidazol-5-yl)methyl)phenyl)propanoic acid] | B (B: 5-10° C.)
16 | Cc1c(Oc2ccc(F)c(-c3ncc(Cc4cc(F)cc(CCC(=O)O)c4)[nH]3)c2)c(F)c(F)c2[nH]ccc12 [Example 105, 3-(3-((2-(5-((6,7-difluoro-4-methyl-1H-indol-5-yl)oxy)-2-fluorophenyl)-1H-imidazol-5-yl)methyl)-5-fluorophenyl)propanoic acid] | B (B: 5-10° C.)
17 | Cc1c(Oc2ccc(F)c(-c3ncc(Cc4cc(F)cc(CCC(=O)O)c4)[nH]3)c2)ccc2[nH]ccc12 [Example 106, 3-(3-fluoro-5-((2-(2-fluoro-5-((4-methyl-1H-indol-5-yl)oxy)phenyl)-1H-imidazol-5-yl)methyl)phenyl)propanoic acid] | B (B: 5-10° C.)
18 | O=C(O)CCc1cccc(Cc2cnc(-c3cc(Oc4c(F)cc5[nH]ccc5c4Cl)ccc3F)[nH]2)c1 [Example 107, 3-(3-((2-(5-((4-chloro-6-fluoro-1H-indol-5-yl)oxy)-2-fluorophenyl)-1H-imidazol-5-yl)methyl)phenyl)propanoic acid] | B (B: 5-10° C.)
19 | Cc1c(Oc2ccc(F)c(-c3ncc(Cc4cc(F)cc(CCC(=O)O)c4)[nH]3)c2)c(F)cc2[nH]ccc12 [Example 108, 3-(3-fluoro-5-((2-(2-fluoro-5-((6-fluoro-4-methyl-1H-indol-5-yl)oxy)phenyl)-1H-imidazol-5-yl)methyl)phenyl)propanoic acid] | B (B: 5-10° C.)
20 | Cc1c(Oc2ccc(F)c(-c3nc(Cc4cccc(CCC(=O)O)c4)c[nH]3)c2)ccc2[nH]ccc12 [Example 109, 3-(3-((2-(2-fluoro-5-((4-methyl-1H-indol-5-yl)oxy)phenyl)-1H-imidazol-4-yl)methyl)phenyl)propanoic acid] | B (B: 5-10° C.)
21 | O=C(O)CCc1cccc(Cc2cnc(-c3cc(Oc4c(F)cc5[nH]ccc5c4F)ccc3F)[nH]2)c1Cl [Example 110, 3-(2-chloro-3-((2-(5-((4,6-difluoro-1H-indol-5-yl)oxy)-2-fluorophenyl)-1H-imidazol-5-yl)methyl)phenyl)propanoic acid] | B (B: 5-10° C.)
22 | O=C(O)CCc1cccc(Cc2c[nH]c(-c3cc(Oc4c(F)cc5[nH]ccc5c4Cl)ccc3F)n2)c1F [Example 111, 3-(3-((2-(5-((4-chloro-6-fluoro-1H-indol-5-yl)oxy)-2-fluorophenyl)-1H-imidazol-4-yl)methyl)-2-fluorophenyl)propanoic acid] | B (B: 5-10° C.)
23 | Cc1c(Oc2ccc(F)c(-c3nc(Cc4cccc(CCC(=O)O)c4F)c[nH]3)c2)c(F)c(F)c2[nH]ccc12 [Example 112, 3-(3-((2-(5-((6,7-difluoro-4-methyl-1H-indol-5-yl)oxy)-2-fluorophenyl)-1H-imidazol-4-yl)methyl)-2-fluorophenyl)propanoic acid] | B (B: 5-10° C.)
24 | O=C(O)CCc1cc(F)cc(Cc2cnc(-c3cc(Oc4c(F)cc5[nH]ccc5c4CC(F)(F)F)ccc3F)[nH]2)c1 [Example 113, 3-(3-fluoro-5-((2-(2-fluoro-5-((6-fluoro-4-(2,2,2-trifluoroethyl)-1H-indol-5-yl)oxy)phenyl)-1H-imidazol-5-yl)methyl)phenyl)propanoic acid] | B (B: 5-10° C.)
25 | O=C(O)CCc1cc(F)cc(Cc2c[nH]c(-c3cc(Oc4c(F)cc5[nH]ccc5c4F)ccc3F)n2)c1 [Example 114, 3-(3-((2-(5-((4,6-difluoro-1H-indol-5-yl)oxy)-2-fluorophenyl)-1H-imidazol-4-yl)methyl)-5-fluorophenyl)propanoic acid] | B (B: 5-10° C.)
26 | Cc1c(Oc2ccc(F)c(-c3ncc(Cc4cccc(CCC(=O)O)c4)[nH]3)c2)c(F)cc2[nH]ccc12 [Example 115, 3-(3-((2-(2-fluoro-5-((6-fluoro-4-methyl-1H-indol-5-yl)oxy)phenyl)-1H-imidazol-5-yl)methyl)phenyl)propanoic acid] | B (B: 5-10° C.)
27 | Cc1c(Oc2ccc(F)c(-c3ncc(Cc4cccc(CCC(=O)O)c4F)[nH]3)c2)ccc2[nH]ccc12 [Example 116, 3-(2-fluoro-3-((2-(2-fluoro-5-((4-methyl-1H-indol-5-yl)oxy)phenyl)-1H-imidazol-5-yl)methyl)phenyl)propanoic acid] | B (B: 5-10° C.)
